According to ChEMBL document CHEMBL5365397, “Synthesis and biological evaluation of biotinylated ZJ-101” (Bioorg Med Chem Lett, 2023):
pIC50: −log10 of the molar value.

What was measured:
HCT-116 = assay: Growth inhibition of human HCT-116 cells measured after 48 hrs by SRB assay; type: functional, cell-based; settings: HCT-116, 48 h
SF-295 [1] = assay: Growth inhibition of human SF-295 cells measured after 48 hrs by SRB assay; type: functional
HT-29 = assay: Growth inhibition of human HT-29 cells measured after 48 hrs by SRB assay; type: functional, cell-based; settings: HT-29, 48 h
MCF7 = assay: Antiproliferative activity against human MCF7 cells by Alamar Blue assay; type: functional, cell-based
MDA-MB-231 [2] = assay: Growth inhibition of human MDA-MB-231 cells measured after 48 hrs by SRB assay; type: functional
MDA-MB-231 [3] = assay: Antiproliferative activity against human MDA-MB-231 cells by Alamar Blue assay; type: functional, cell-based
SF-295 [4] = assay: Antiproliferative activity against human SF-295 cells by Alamar Blue assay; type: functional, cell-based

SMILES | pIC50 (HCT-116) | GI50 (SF-295 [1]) [µM] | pIC50 (HT-29) | pIC50 (MCF7) | GI50 (MDA-MB-231 [2]) [µM] | pIC50 (MDA-MB-231 [3]) | pIC50 (SF-295 [4])
CC(=O)N[C@H](C)[C@@H](O)[C@@H](C)[C@@H]1OC(=O)/C=C/C=C(C)\C=C\[C@]2(C)CCC=C[C@@H]2/C=C(C)/C=C/[C@H]1C | 7.28 | < 0.01 | 8.12 | 7.39 | < 0.01 | 7.21 | –
CC1=C/C=C/C(=O)O[C@@H]([C@H](C)[C@H](O)[C@@H](C)NC(=O)CCOCCOCCOCCOCCNC(=O)CCCC[C@@H]2SC[C@@H]3NC(=O)N[C@@H]32)[C@H](C)/C=C/C(C)=C/[C@H]2C=CCC[C@@]2(C)\C=C\1 | – | – | – | < 5.30 | – | < 5.30 | < 5.30
